Data as given in ChEMBL document CHEMBL5385875, “Tumor killing by a dietary curcumin mono-carbonyl analog that works as a selective ROS generator via TrxR inhibition” (Eur J Med Chem, 2023).
Calls of active or inactive are those of the source. The rule behind the calls is not given here.

Tests used:
MRC5 [1] = experiment: Induction of ferroptosis in human MRC5 cells assessed as increase in intracellular […] by measuring increase in red fluorescence intensity at 2 uM incubated for 40 hrs by C11-BODIPY staining based microscopy analysis; format: functional, cell-based
[2] = Toxicity in BALB/c nude mouse assessed as effect on heart at 5 to 15 mg/kg, ip measured every two days for 27 days; format: organism-based; details: in vivo, 648 h, dose 5-15 mg/kg, time 27 day
NCI-H460 [3] = experiment: Induction of intracellular ROS accumulation in human NCI-H460 cells at 1 to 2 uM measured after 6 hrs in presence of NAC by DCFH-DA dye based fluorescence assay; format: functional, cell-based; details: dose 1-2 µM
NCI-H460 [4] = experiment: Cytotoxicity against human NCI-H460 cells assessed as reduction in cell viability at 0.5 to 2 uM incubated for 48 hrs in presence of alpha tocopherol by MTT assay; format: functional, cell-based; details: dose 0.5-2 µM
[5] = Inhibition of TrxR protein expression in human NCI-H460 cells at 2 uM measured after 6 hrs by immunoblot analysis relative to control; format: functional
NCI-H460 [6] = experiment: Upregulation of caspase-3 activation in human NCI-H460 cells at 1 to 2 uM measured after 48 hrs in presence of NAC by immunoblot analysis; format: functional, cell-based; details: dose 1-2 µM
NCI-H460 [7] = experiment: Induction of ferroptosis in human NCI-H460 cells assessed as increase in MDA levels at 2 uM measured after 40 hrs in presence of Fer-1 by MDA assay; format: functional, cell-based
NCI-H460 [8] = experiment: Induction of ROS accumulation in human NCI-H460 cells assessed as reduction in GSH levels by measuring yellow green fluorescence incubated for 9 hrs in presence of NAC by fluorescence microscope based analysis; format: functional, cell-based
NCI-H460 [9] = experiment: Cytotoxicity against human NCI-H460 cells assessed as reduction in cell viability at 0.5 to 1 uM measured after 48 hrs in presence of Z-VAD-fmk by MTT assay; format: functional, cell-based; details: dose 0.5-1 µM
A549 = experiment: Cytotoxicity against human A549 cells assessed as reduction in cell viability incubated for 48 hrs by MTT assay; format: functional, cell-based; details: A549, 48 h
NCI-H460 [10] = experiment: Induction of apoptosis in human NCI-H460 cells assessed as reduction of mitochondrial membrane potential incubated for 12 to 36 hrs by JC-1 staining based flow cytometry analysis; format: functional, cell-based; details: dose 0.5-2 µM, time 12-36 hrs
HepG2 = experiment: Cytotoxicity against human HepG2 cells assessed as reduction in cell viability incubated for 48 hrs by MTT assay; format: functional, cell-based; details: HepG2, 48 h
NCI-H460 [11] = experiment: Induction of ferroptosis in human NCI-H460 cells assessed as increase in intracellular […] by measuring increase in red fluorescence intensity at 0.5 uM incubated for 40 hrs in presence of NAC by C11-BODIPY staining based microscopy analysis; format: functional, cell-based
[12] = target: T1, Thioredoxin reductase (Homo sapiens) (UniProt Q16881+Q9NNW7+Q86VQ6); experiment: Inhibition of TrxR in human MRC5 cells at 2 uM measured after 6 hrs by fluorescence microscopy based analysis; format: cell-based
NCI-H460 [13] = experiment: Cytotoxicity against human NCI-H460 cells assessed as reduction in cell viability at 0.5 to 2 uM incubated for 48 hrs in presence of N-acetylcysteine by MTT assay; format: functional, cell-based; details: dose 0.5-2 µM
NCI-H460 [14] = experiment: Induction of ferroptosis in human NCI-H460 cells assessed as reduction in GPX4 protein expression at 1 to 2 uM measured after 24 hrs in presence of NAC by immunoblot analysis; format: functional, cell-based; details: dose 1-2 µM
NCI-H460 [15] = experiment: Cytotoxicity against human NCI-H460 cells assessed as reduction in cell viability at 0.5 to 1 uM measured after 48 hrs in presence of necrostatin-1 by MTT assay; format: functional, cell-based; details: dose 0.5-1 µM
NCI-H460 [16] = experiment: Induction of ferroptosis in human NCI-H460 cells assessed as increase in MDA levels at 2 uM measured after 40 hrs in presence of NAC by MDA assay; format: functional, cell-based
NCI-H460 [17] = experiment: Downregulation of Bcl-2 expression in human NCI-H460 cells at 1 to 2 uM measured after 48 hrs in presence of NAC by immunoblot analysis; format: functional, cell-based; details: dose 1-2 µM
HT-1080 = experiment: Cytotoxicity against human HT-1080 cells assessed as reduction in cell viability incubated for 48 hrs by MTT assay; format: functional, cell-based; details: HT-1080, 48 h
[18] = target: T1, Thioredoxin reductase (Homo sapiens); experiment: Inhibition of TrxR in human NCI-H460 cells measured after 6 hrs by DTNB reduction assay relative to control; format: cell-based; details: dose 0.5-2 µM
MRC5 [19] = experiment: Induction of ROS accumulation in human MRC5 cells assessed as reduction in GSH levels by measuring yellow green fluorescence incubated for 9 hrs by fluorescence microscope based analysis; format: functional, cell-based
[20] = Toxicity in BALB/c nude mouse assessed as effect on animal activity at 5 to 15 mg/kg, ip measured every two days for 27 days; format: organism-based; details: in vivo, 648 h, dose 5-15 mg/kg, time 27 day
NCI-H460 [21] = experiment: Upregulation of caspase-9 activation in human NCI-H460 cells at 1 to 2 uM measured after 48 hrs in presence of NAC by immunoblot analysis; format: functional, cell-based; details: dose 1-2 µM
[22] = Toxicity in BALB/c nude mouse assessed as effect on hair colour at 5 to 15 mg/kg, ip measured every two days for 27 days; format: organism-based; details: in vivo, 648 h, dose 5-15 mg/kg, time 27 day
NCI-H460 [23] = experiment: Induction of ferroptosis in human NCI-H460 cells assessed as fold increase in MDA levels at 2 uM measured after 40 hrs by MDA assay; format: functional
NCI-H460 [24] = experiment: Cytotoxicity against human NCI-H460 cells assessed as reduction in cell viability at 0.5 to 2 uM incubated for 48 hrs in presence of dithiothreitol by MTT assay; format: functional, cell-based; details: dose 0.5-2 µM
NCI-H460 [25] = experiment: Antitumor activity against human NCI-H460 cells xenografted in BALB/c nude mouse assessed as downregulation of GPX4 expression at 5 to 15 mg/kg by immunohistochemical staining based analysis; format: functional, organism-based; details: dose 5-15 mg/kg
NCI-H460 [26] = experiment: Induction of intracellular ROS accumulation in human NCI-H460 cells at 1 to 2 uM measured after 6 hrs in presence of VE by DCFH-DA dye based fluorescence assay; format: functional, cell-based; details: dose 1-2 µM

Question: For `O=C1/C(=C/c2cccc(C(F)(F)F)c2)CNC/C1=C\c1cccc(C(F)(F)F)c1`, which Activity (MRC5 [1]) is on record?
Answer: The Activity was “inactive”.

Question: What about the Activity [2] of the same compound?
Answer: Its Activity is “Non-Toxic”.

Question: And the Activity (NCI-H460 [3])?
Answer: The Activity was “inactive”.

Question: And the Activity (NCI-H460 [4])?
Answer: Its Activity is “inactive”.

Question: And the inhibition at 2 µM [5]?
Answer: The inhibition at 2 µM was 69%.

Question: And the Activity (NCI-H460 [6])?
Answer: The Activity was “inactive”.

Question: What about the Activity (NCI-H460 [7]) of the same compound?
Answer: The Activity was “inactive”.

Question: What about the Activity (NCI-H460 [8]) of the same compound?
Answer: Its Activity is “inactive”.

Question: What about the Activity (NCI-H460 [9]) of the same compound?
Answer: The Activity was “Active”.

Question: What about the IC50 (A549) of the same compound?
Answer: Its IC50 is 5.8 µM.

Question: What about the Activity (NCI-H460 [10]) of the same compound?
Answer: The Activity was “Dose-Dependent Effect”.

Question: What about the IC50 (HepG2) of the same compound?
Answer: The IC50 was 0.67 µM.

Question: And the Activity (NCI-H460 [11])?
Answer: Its Activity is “inactive”.

Question: And the inhibition [12]?
Answer: Its inhibition is “inactive”.

Question: What about the Activity (NCI-H460 [13]) of the same compound?
Answer: Its Activity is “inactive”.

Question: What about the Activity (NCI-H460 [14]) of the same compound?
Answer: The Activity was “inactive”.

Question: And the Activity (NCI-H460 [15])?
Answer: The Activity was “inactive”.

Question: And the Activity (NCI-H460 [16])?
Answer: Its Activity is “inactive”.

Question: What about the Activity (NCI-H460 [17]) of the same compound?
Answer: The Activity was “inactive”.

Question: And the IC50 (HT-1080)?
Answer: The IC50 was 0.93 µM.

Question: And the inhibition [18]?
Answer: The inhibition was “Dose-Dependent Effect”.

Question: And the Activity (MRC5 [19])?
Answer: Its Activity is “inactive”.

Question: What about the Activity [20] of the same compound?
Answer: The Activity was “Non-Toxic”.

Question: What about the Activity (NCI-H460 [21]) of the same compound?
Answer: Its Activity is “inactive”.

Question: And the Activity [22]?
Answer: Its Activity is “Non-Toxic”.

Question: And the “fold change (FC)” value (NCI-H460 [23])?
Answer: The value was 3.5.

Question: And the Activity (NCI-H460 [24])?
Answer: Its Activity is “inactive”.

Question: And the Activity (NCI-H460 [25])?
Answer: The Activity was “Active”.

Question: And the Activity (NCI-H460 [26])?
Answer: The Activity was “inactive”.
